{
  "source": "patent US8361999B2",
  "about": "“Methods of treating cholesterol gallstone disease with ezetimibe” (Pontificia Universidad Catolica de Chile, priority 2005, dated 2013)",
  "key": {"C57BL/6J mice": {"system": "C57BL/6J mice", "test": "Glutathione biliary secretion", "type": "in vivo, mouse", "settings": "lithogenic diet (FIG. 4)", "description": "Surgery and sample harvest. The groups were maintained for 14 days (protocol #1) or 30 days (protocol #2) in the different experimental conditions. During the last three days of the protocols, 24 h depositions were collected from the different groups (pool) to determine the fecal excretion of neutral sterols (cholesterol) and acidic sterols (bile salts). At the end of the time established in the protocols, the mice were anesthetized (between 08:00-10:00 AM) with an intraperitoneal pentobarbital injection in doses of 4.5 mg per 100 gr body weight (Amigo et al., 2000) and subjected to surgery. Standardized surgery consists in an extended […] and visualization of abdominal organs, including liver, biliary tree and gallbladder. […] Afterwards, the common biliary duct is cannulated (biliary fistula) with a P-10 polyethylene cannula to collect bile during 15 minutes, determine bile flow by gravimetry (1 g bile=1 ml; bile flow is expressed as μl/min/g of mouse liver) and for posterior chemical analysis of biliary lipids and glutathione, as specified later. […]\nBiliary gluthation. Biliary gluthation was quantified from the bile obtained by cannulation of the biliary duct for a 5 minute period with tubes containing 5 μl sulfosalicylic acid. […] The reaction mix was incubated at 37° C., measured at 412 nm, and an enzymatic kinetic curve was obtained using different […] concentrations as standard. […]"}, "Ntcp": {"system": "Ntcp", "test": "Hepatic expression of bile salts transporter Ntcp (Western blot)", "type": "in vivo, mouse", "text": "(§1) Expression of Specific Bile Salts (Ntcp, Bsep), Phospholipid (MDR2) and Organic Anions or Glutathione (MRP2); And Determination of Glutathione Synthesis (Gluthamylcystein-Synthetase (GGCS)).\nWestern Blot analysis. We evaluated protein expression levels of the bile salts transporters Ntcp (sinusoidal pole) and Bsep (cannicular pole) by Western blotting in total liver membranes or liver plasma membranes from mice treated with the different diets. Total membranes were obtained from liver fragments homogenized in Tris-HCl pH 7.5, MgCl2 and sucrose. The homogenates were centrifuged at 1,000 g to separate nuclei, and the supernatants were then centrifuged at 100,000 g. The pellet, containing the total membranes, was resuspended in the buffer described above and proteins were quantified by the Bradford method. Aliquots containing 50 μg protein were separated by SDS-PAGE and transfer to nitrocellulose. The membranes were incubated in buffer TBS-T (Tris-HCl pH 7.5, NaCl and Tween-20), milk 5% w/v plus the antibodies to evaluate the different proteins (Bsep, Ntcp). The secondary antibodies were IgG anti rabbit or anti mouse coupled to peroxidase. The protein signals were detected by the ECL method."}, "MDR2": {"system": "MDR2", "test": "Hepatic expression of phospholipid transporter MDR2 (Northern blot)", "type": "in vivo, mouse", "description": "as §1\n(§2) Total RNA extraction. 80 mg hepatic tissue frozen at −70° C. was homogenized in 800 μl solution D, following the method described by Chomczynski and Sacchi, 1987. The RNA concentration was calculated by measuring the absorbance at 260 nm and its purity by the ratio OD260/OD280. The samples are stored at −20° C. RNA electrophoresis. 10 μg of total RNA are dried under gaseous N2 or vacuum for 10 minutes. 10 μl loading buffer were added, and the samples heated to 65° C., loaded into a denaturing 1% agarose/formaldehyde gel and run at 100 volts for 4 hours. The RNA integrity was determined by the clear visualization of the 28 S and 18 S ribosomal RNAs (FIG. 8).\n(§3) Northern Blot and hybridization with radioactive probes. The gel with the RNA samples is washed with DEPC H2O for 10 minutes to eliminate formaldehyde and then incubated for 20 minutes with 50 mM NaOH for partial RNA hydrolysis. After a 10 minute wash with DEPC H2O to eliminate NaOH, the samples are transferred from the gel to Nylon membranes (Hybond-N, Amersham Pharmacia) over night by a capillary system. […]\n(§4) Probe labeling by “de novo synthesis”. […] The percentage of incorporated radioactivity into the probe was always over 60%. […]"}, "GGCS": {"system": "GGCS", "test": "Hepatic expression of gamma-gluthamylcystein-synthetase (Northern blot)", "type": "in vivo, mouse", "settings": "14 days", "description": "as §1, §2, §3, §4"}, "cholesterol absorption": {"system": "cholesterol absorption", "settings": "relative to SCH 48461; cited from earlier work"}},
  "note": "“Also recorded” adds a separate entry of the source.",
  "data": [
    {"smiles": "O=C1[C@H](CC[C@H](O)c2ccc(F)cc2)[C@@H](c2ccc(O)cc2)N1c1ccc(F)cc1", "note": "[Ezetimibe, (−)-1-(4-fluorophenyl)-(3R)-[3-(4-fluorophenyl)-(.S)-hydroxypropyl]-(4S)-(4-hydroxyphenyl)-2-azetidinone]", "values": [
      {"measurement": "increase in glutathione secretion vs lithogenic diet only (significant)", "setting": "C57BL/6J mice", "value": 200, "unit": "%"},
      {"measurement": "hepatic expression of Ntcp, lithogenic diet plus Ezetimibe vs lithogenic diet", "setting": "Ntcp; 14 days", "value": "no significant differences"},
      {"measurement": "decrease of Ntcp protein expression level on a lithogenic diet", "setting": "Ntcp; FIG. 6 B, lithogenic diet with Ezetimibe vs plus water", "value": "significantly attenuated"},
      {"measurement": "phospholipid transporter MDR2 at the mRNA level", "setting": "MDR2; lithogenic diet plus Ezetimibe vs lithogenic diet, 14 days", "value": "small but statistically significant decrease; also recorded: slight but statistically significant decrease"},
      {"measurement": "mdr2 protein levels", "setting": "MDR2; lithogenic diet plus Ezetimibe, data not shown", "value": "no concomitant decrease"},
      {"measurement": "hepatic expression of GGCS, lithogenic diet plus Ezetimibe vs lithogenic diet", "setting": "GGCS", "value": "no significant differences"},
      {"measurement": "inhibitory activity in cholesterol absorption higher than predecessor analog (SCH 48461)", "setting": "cholesterol absorption", "value": 400, "unit": "times"}
    ]}
  ]
}
